Patent US20250198442A1, “GAMMA POLYGLUTAMATED PEMETREXED AND USES THEREOF” (L.E.A.F. HOLDINGS GROUP LLC, priority 2020, published 2025)

Columns and labels:
AML12 liver cells = assay: Toxicity to AML12 liver cells; type: cell-based; conditions: all doses studied (16 to 128 nM), 48 hours
Description: (§1) Methodologies used for cell line AML12 (non-cancerous liver cells) and CCD841 (non-cancerous colon epithelial cells) are similar to the methods used for cancer cells.

[1] = test system: CCD841 colon epithelium cells; assay: Toxicity to CCD841 colon epithelium cells; type: cell-based; conditions: 16 nM, 32 nM, 64 nM and 128 nM, 48 hours
Description: as §1

[2] = test system: NCI H2342 non-small cell lung cancer (NSCLC), adenocarcinoma subtype; assay: CellTiter-Glo cell viability dose response, NCI H2342; type: cell-based, human; conditions: H2342, 48 hours of treatment, rank among test articles
Method: (§2) The CTG assay uses luciferase as a readout.
(§3) Luciferase luminescence were recorded for each well.

HT-29 (colon cancer) = assay: CellTiter-Glo cell viability dose response, HT-29; type: cell-based, human; conditions: HT-29, 48 hours, rank among test articles
Method: as §2, §3

Structure (SMILES)	reduction in the AML12 liver cell counts (AML12 liver cells)	decrease in the number of CCD841 colon epithelium cells [1]	potency as measured by IC50 [2]	potency (cell viability) (HT-29 (colon cancer))
Nc1nc2[nH]cc(CCc3ccc(C(=O)N[C@@H](CCC(=O)O)C(=O)O)cc3)c2c(=O)[nH]1 [pemetrexed]	approximately 40%	≥ 50%		
Nc1nc(=O)c2c(CCc3ccc(C(=O)N[C@@H](CCC(=O)N[C@@H](CCC(=O)N[C@@H](CCC(=O)N[C@@H](CCC(=O)N[C@@H](CCC(=O)N[C@@H](CCC(=O)O)C(=O)O)C(=O)O)C(=O)O)C(=O)O)C(=O)O)C(=O)O)cc3)c[nH]c2[nH]1 [gG6, pemetrexed L-gamma hexaglutamate]			least potent	least potent
